pIC50: −log10 of the molar value. Several values for one entry are separate records, joined by “and”; a condition that tells them apart may be missing. Equal values may be shown once.
Assays:
[1] = test system: castrated (CX) immature male rats; assay: Systemic androgenic (agonistic) activity in orchidectomized (CX) immature male rats; format: in vivo, rat
Protocol: Immature male rats (Crl:CD(SD)Br) 22 to 24-day old weighting 60-80 g at start of treatment were obtained from Charles-River, Inc. (St-Constant, Quebec, Canada) and housed up to 5 per cage in plastic bins in a temperature (23±1° C.)- and light (12 h light/day, lights on at 7 h15)-controlled environment. The rats were fed rodent chow and tap water ad libitum. […] The day following their arrival, the designed animals were orchidectomized (CX) under Isoflurane anesthesia (Study Day 1) via the scrotal route and were then randomly assigned to groups of 3 to 5 animals. At the time of orchidectomy, one silastic implant of dihydrotestosterone (DHT; 1 cm length of pure DHT in silastic tubing having inner and outer diameter of 0.078 and 0.125 inches, respectively), was inserted subcutaneously in the dorsal area of animals assigned to the evaluation of antiandrogenic activity. In the case of intact animal experiments, the orchidectomy and the silastic implant installation are omitted.
Tested compounds were administered orally once daily for 7 days from Study Day 2 to Study Day 8 at doses generally ranging from 0.1 and 0.5 mg/animal. Compounds were either solubilized in dimethylsulfoxide (DMSO, 10% final concentration) and were administered as a solution/suspension in 0.9% NaCl-1% gelatin or were administered as suspensions in 0.4% aqueous methylcellulose. Animals of the control groups received the corresponding vehicle alone during the 7-day period. Some animals were treated with the antiandrogen Flutamide or Casodex as reference. The animals under isoflurane anesthesia were killed by cervical dislocation on day 9 of the study, approximately 24 h after the last dosing. The ventral prostate, seminal vesicles and bulbocavernosus muscles were rapidly dissected and weighed.
For calculations with intact animals, control DHT is replaced by control intact and the % stimulation is subtracted by 100%. W is the weight of the prostate, seminal vesicles or bulbocavernosus muscles. Discussion

Human Androgen Receptor = Human Androgen Receptor (Homo sapiens (Human), UniProt P10275); assay: Androgen receptor assay: [3H]R1881 displacement, cytosol of HEK-293 cells transfected with hAR (hydroxylapatite assay); format: binding; conditions: for Human Androgen Receptor Binding RBA (%) R1881 = 100: relative binding affinity
Sequence of Human Androgen Receptor (P10275 whole entry): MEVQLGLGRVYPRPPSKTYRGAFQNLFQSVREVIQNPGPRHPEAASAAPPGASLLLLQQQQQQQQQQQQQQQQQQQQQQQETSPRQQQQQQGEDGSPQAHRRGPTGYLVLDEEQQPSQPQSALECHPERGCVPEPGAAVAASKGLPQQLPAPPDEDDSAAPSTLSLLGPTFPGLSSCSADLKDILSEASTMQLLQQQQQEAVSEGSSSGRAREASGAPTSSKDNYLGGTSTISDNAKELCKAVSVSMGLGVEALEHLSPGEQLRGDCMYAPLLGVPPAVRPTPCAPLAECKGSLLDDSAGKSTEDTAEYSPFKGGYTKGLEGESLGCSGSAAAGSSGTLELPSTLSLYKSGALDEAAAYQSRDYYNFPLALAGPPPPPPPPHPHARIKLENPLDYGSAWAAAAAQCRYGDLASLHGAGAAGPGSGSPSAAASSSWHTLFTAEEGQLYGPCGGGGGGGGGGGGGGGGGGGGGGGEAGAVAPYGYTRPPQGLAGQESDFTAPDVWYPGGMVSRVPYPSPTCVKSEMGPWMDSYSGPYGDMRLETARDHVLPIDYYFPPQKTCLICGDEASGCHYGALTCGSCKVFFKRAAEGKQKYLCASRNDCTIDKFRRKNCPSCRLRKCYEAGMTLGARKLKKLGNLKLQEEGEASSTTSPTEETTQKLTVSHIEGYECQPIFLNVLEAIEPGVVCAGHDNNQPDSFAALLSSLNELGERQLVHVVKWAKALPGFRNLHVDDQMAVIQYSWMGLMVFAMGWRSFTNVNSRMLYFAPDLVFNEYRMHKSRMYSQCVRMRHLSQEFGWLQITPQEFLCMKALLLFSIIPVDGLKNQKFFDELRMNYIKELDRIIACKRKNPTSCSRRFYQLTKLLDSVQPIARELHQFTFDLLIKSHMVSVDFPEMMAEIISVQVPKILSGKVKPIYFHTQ

[2] = test system: Shionogi mouse mammary carcinoma cells; assay: In vitro androgenic/antiandrogenic activity: proliferation of Shionogi cells with or without DHT; format: cell-based; conditions: for pIC50: Mus musculus, read-out: Shionogi Antiandrogenic Activity IC50, DHT (0.3 nM)-stimulated cell number
[3] = 0.1 mg/rat/po, 7 days, bulbocavernosus muscles weight
[4] = 0.1 mg/rat/po, 7 days, seminal vesicles weight
[5] = 0.1 mg/rat/po, 7 days, ventral prostate weight

| Compound | CX Agonistic activity % Stimulation Bulbo [1, 3] | CX Agonistic activity % Stimulation SV [1, 4] | CX Agonistic activity % Stimulation Prostate [1, 5] | Human Androgen Receptor Binding RBA (%) R1881 = 100 (Human Androgen Receptor; […]) [%] | pIC50 [2] | Human Androgen Receptor Binding RBA (%) R1881 = 100 (Human Androgen Receptor; transfected cells) [%] | stimulation at 10^−7M on basal Shionogi cell proliferation (in words) ([2]; basal (no DHT), 10^−7M) | CX Agonistic activity % Stimulation Bulbo ([1]; 0.02 mg/rat po) | CX Agonistic activity % Stimulation Prostate ([1]; 0.02 mg/rat po) | CX Agonistic activity % Stimulation SV ([1]; 0.02 mg/rat po) | times more potent than OH-flutamide on the human AR (RBA ratio) (Human Androgen Receptor; versus hydroxyflutamide) [times] |
| --- | --- | --- | --- | --- | --- | --- | --- | --- | --- | --- | --- |
| CC1(C)C(=O)N(c2ccc(C#N)c(C(F)(F)F)c2)C(=S)N1CCCOc1ccc2ncccc2c1 [EM-8990] | 3% | 1% | 0% | 53.6 | 8.01 | – | – | – | – | – | – |
| CC1(C)C(=O)N(c2ccc(C#N)c(C(F)(F)F)c2)C(=S)N1CCCOc1ccc2cccnc2c1 [EM-8991] | 1% | 2% | 2% | 28.5 | 7.41 | – | – | – | – | – | – |
| Cc1c(N2C(=O)C(C)(C)N(CCCOc3ccc(-c4ccc(N(C)C)nc4)cc3)C2=S)ccc(C#N)c1Cl [EM-8993] | 123% | 61% | 50% | – | 7.23 | 4.8 | – | – | – | – | – |
| Cc1c(N2C(=O)C(C)(C)N(CCCOc3ccc(-c4ccc(N(C)C)nc4)c(F)c3)C2=S)ccc(C#N)c1Cl [EM-8996] | 131% | 53% | 49% | – | 7.00 | 48.9 | – | – | – | – | – |
| CC1(C)C(=O)N(c2ccc(C#N)c(C(F)(F)F)c2)C(=S)N1CCCOc1ccc2ncncc2c1 [EM-9010] | 5% | 0% | 0% | 29.5 | 8.00 | – | – | – | – | – | – |
| CC1(C)C(=O)N(c2ccc(C#N)c(C(F)(F)F)c2)C(=S)N1CCCOc1ccc2cnccc2c1 [EM-9021] | 9% | 0% | 1% | 166.8 | 8.30 | – | – | – | – | – | – |
| CC1(C)C(=O)N(c2ccc(C#N)c(C(F)(F)F)c2)C(=S)N1CCCOc1ccc2c(ccc[n+]2[O-])c1 [EM-9028] | 1% | 2% | 2% | – | 8.59 | 25.3 | none of these compounds has any activity | – | – | – | – |
| Cc1c(N2C(=O)C(C)(C)N(CCCOc3ccc(-c4cc[n+]([O-])cc4)c(Cl)c3)C2=S)ccc(C#N)c1Cl [EM-9036] | – | – | – | 131 | < 7.00 | – | – | 142 (0.02 mg/rat) % | 24 (0.02 mg/rat) % | 24 (0.02 mg/rat) % | – |
| Cc1ccc2cc(OCCCN3C(=O)N(c4ccc(C#N)c(C(F)(F)F)c4)C(=O)C3(C)C)ccc2n1 [EM-9090] | 11% | 0% | 1% | 2.5 | 7.48 | – | – | – | – | – | – |
| Cc1ccc2cc(OCCCN3C(=O)N(c4ccc(C#N)c(C(F)(F)F)c4)C(=O)C3(C)C)ccc2[n+]1[O-] [EM-9093] | 9% | 0% | 0% | 0.6 | 7.64 | – | – | – | – | – | – |
| Cc1c(N2C(=O)N(CCCOc3ccc(-c4ccncc4)c(F)c3)C(C)(C)C2=O)ccc(C#N)c1Cl [EM-9253] | 114±18% and 114 ± 18 (n = 2) % | 18 ± 2 (n = 2) % | 34 ± 1 (n = 2) % | 125 | 7.52 | – | – | – | – | – | 595 |
| Cc1c(N2C(=O)N(CCCOc3ccc(-c4cc[n+]([O-])cc4)c(F)c3)C(C)(C)C2=O)ccc(C#N)c1Cl [EM-9254] | 101 ± 5 (n = 3) % | 23 ± 1 (n = 3) % | 47 ± 6 (n = 3) % | – | 7.26 | 38.8 | – | – | – | – | – |

— patent US9682960B2 (priority 2013, dated 2017)
